Measured values taken from patent US12459914B2, “Compounds and compositions for the treatment of tumors” (FONDAZIONE ISTITUTO ITALIANO DI TECNOLOGIA, priority 2019, dated 2025).

biological target: T1, BRC4/RAD51 interaction (Homo sapiens, UniProt Q06609); assay: Competitive ELISA assay, disruption of BRC4/RAD51 interaction; format: binding; details: human Rad51, biotinylated BRC4 peptide
T1 construct: purchased Creative Biomart (Rad51); Life Technologies (BRC4 peptide)
T1 sequence (Q06609 1-339): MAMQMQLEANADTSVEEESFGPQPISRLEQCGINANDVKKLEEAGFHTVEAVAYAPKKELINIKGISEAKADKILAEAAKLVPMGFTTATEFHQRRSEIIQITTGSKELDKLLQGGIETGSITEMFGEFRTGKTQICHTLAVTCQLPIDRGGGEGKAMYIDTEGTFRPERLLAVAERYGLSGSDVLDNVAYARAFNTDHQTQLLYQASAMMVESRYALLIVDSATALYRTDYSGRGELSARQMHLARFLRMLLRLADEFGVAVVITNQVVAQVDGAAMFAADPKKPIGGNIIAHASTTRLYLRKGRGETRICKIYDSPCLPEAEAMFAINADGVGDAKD
Procedure: A competitive ELISA screening assay using biotinylated BRC4 peptide to disrupt the BRC4/RAD51 interaction was performed by modifying the method described by Rajendra et al. (Nucleic Acids Res. 38 (2010) 82-96). BRC4-biotinylated peptide (N-term Biotin[…] from Life Technologies) was used to coat 384-well plates (Nunc). After washing with PBS containing 0.05% Tween-20 (PBST), and blocking with the solution BSA 1%/PBST, overnight hybridization with human Rad51 protein (NP_002866 Creative Biomart, NY) was performed. Test compounds were added in dose-response from […] in triplicate with constant DMSO 1%. Antibody raised against Rad51 (Millipore) and HRP-secondary antibody staining to develop the 3,30,5,50-tetramethyllbenzidine signal (Sigma) quenched with 1M HCl was used as the assay readout. Colorimetric measure was read on Victor5 (PerkinElmer) plate Reader. BRC4 and Rad51 were included in the assay as positive control. Results were analyzed using GraphPad Software.

SMILES	EC50
COc1ccc(C2CC(c3c(-c4ccccc4)c4cc(Cl)ccc4[nH]c3=O)=NN2C(=O)CCC(=O)O)cc1F (centres unmarked) [d.18, 4-[5-(6-chloro-2-oxo-4-phenyl-1H-quinolin-3-yl)-3-(3-fluoro-4-methoxy-phenyl)-3,4-dihydropyrazol-2-yl]-4-oxo-butanoic acid]	> 100 µM
CC(=O)N1N=C(c2c(Cc3ccccc3)c3cc(Cl)ccc3[nH]c2=O)CC1c1ccc(F)cc1 (centres unmarked) [d.51, 3-[2-acetyl-3-(4-fluorophenyl)-3,4-dihydropyrazol-5-yl]-4-benzyl-6-chloro-1H-quinolin-2-one]	13 µM
O=C(O)CCC(=O)N1N=C(c2c(-c3ccccc3)c3cc(Cl)ccc3[nH]c2=O)CC1c1ccccn1 (centres unmarked) [d.99, 4-(3-(6-chloro-2-oxo-4-phenyl-1,2-dihydroquinolin-3-yl)-5-(pyridin-2-yl)-4,5-dihydro-1H-pyrazol-1-yl)-4-oxobutanoic acid]	190 µM
O=C(O)CCC(=O)N1N=C(c2c(Cc3ccccc3)c3cc(Cl)ccc3[nH]c2=O)CC1c1cccnc1 (centres unmarked) [d.100, 4-[5-(4-benzyl-6-chloro-2-oxo-1H-quinolin-3-yl)-3-(3-pyridyl)-3,4-dihydropyrazol-2-yl]-4-oxo-butanoic acid]	15 µM
COc1ccc(-c2ccc(C3CC(c4c(-c5ccccc5)c5cc(Cl)ccc5[nH]c4=O)=NN3C(C)=O)cc2)cc1 (centres unmarked) [d.42, 3-[2-acetyl-3-[4-(4-methoxyphenyl)phenyl]-3,4-dihydropyrazol-5-yl]-6-chloro-4-phenyl-1H-quinolin-2-one]	70 µM
CCC(=O)N1N=C(c2c(-c3ccccc3)c3cc(Cl)ccc3[nH]c2=O)CC1c1ccc(Br)cc1 (centres unmarked) [d.10, 3-[3-(4-bromophenyl)-2-propanoyl-3,4-dihydropyrazol-5-yl]-6-chloro-4-phenyl-1H-quinolin-2-one]	19 µM
COc1ccc(C2CC(c3c(Cc4ccccc4)c4cc(Cl)ccc4[nH]c3=O)=NN2C(=O)CCC(=O)O)cc1 (centres unmarked) [d.61, 4-[5-(4-benzyl-6-chloro-2-oxo-1H-quinolin-3-yl)-3-(4-methoxyphenyl)-3,4-dihydropyrazol-2-yl]-4-oxo-butanoic acid]	> 100 µM
CCn1ncc2cc(-c3ccc(C4CC(c5c(-c6ccccc6)c6cc(Cl)ccc6[nH]c5=O)=NN4C(=O)CCC(=O)O)cc3)ccc21 (centres unmarked) [d.45, 4-[5-(6-chloro-2-oxo-4-phenyl-1H-quinolin-3-yl)-3-[4-(1-ethylindazol-5-yl)phenyl]-3,4-dihydropyrazol-2-yl]-4-oxo-butanoic acid]	15 µM
Cn1ccc2cc(C3CC(c4c(Cc5ccccc5)c5cc(Cl)ccc5[nH]c4=O)=NN3C(=O)CCC(=O)O)ccc21 (centres unmarked) [d.69, 4-[5-(4-benzyl-6-chloro-2-oxo-1H-quinolin-3-yl)-3-(1-methylindol-5-yl)-3,4-dihydropyrazol-2-yl]-4-oxo-butanoic acid]	10 µM
CCCn1cc(-c2ccc(C3CC(c4c(-c5ccccc5)c5cc(Cl)ccc5[nH]c4=O)=NN3C(C)=O)cc2)cn1 (centres unmarked) [d.44, 3-[2-acetyl-3-[4-(1-propylpyrazol-4-yl)phenyl]-3,4-dihydropyrazol-5-yl]-6-chloro-4-phenyl-1H-quinolin-2-one]	46 µM
COc1ccc(-c2ccc(C3CC(c4c(Cc5ccccc5)c5cc(Cl)ccc5[nH]c4=O)=NN3C(C)=O)cc2)cc1 (centres unmarked) [d.89, 3-[2-acetyl-3-[4-(4-methoxyphenyl)phenyl]-3,4-dihydropyrazol-5-yl]-4-benzyl-6-chloro-1H-quinolin-2-one]	105 µM
CCC(=O)N1N=C(c2c(Cc3ccccc3)c3cc(Cl)ccc3[nH]c2=O)CC1c1ccc(F)cc1 (centres unmarked) [d.54, 4-benzyl-6-chloro-3-[3-(4-fluorophenyl)-2-propanoyl-3,4-dihydropyrazol-5-yl]-1H-quinolin-2-one]	65 µM
O=C(O)CCC(=O)N1N=C(c2c(Cc3ccccc3)c3cc(Cl)ccc3[nH]c2=O)CC1c1ccc(-c2ccc(F)cc2)cc1 (centres unmarked) [d.83, 4-[5-(4-benzyl-6-chloro-2-oxo-1H-quinolin-3-yl)-3-[4-(4-fluorophenyl)phenyl]-3,4-dihydropyrazol-2-yl]-4-oxo-butanoic acid]	12 µM
CCC(=O)N1N=C(c2c(-c3ccccc3)c3cc(Cl)ccc3[nH]c2=O)CC1c1ccc(F)cc1 (centres unmarked) [d.3, 6-chloro-3-[3-(4-fluorophenyl)-2-propanoyl-3,4-dihydropyrazol-5-yl]-4-phenyl-1H-quinolin-2-one]	34 µM

tested on: BxPC-3 cells; assay: Cell viability assay (CellTiter Glo); format: cell-based; details: Homo sapiens, 72 h
Procedure: BxPC-3 cells were grown in RPMI 1640 containing 10% FBS, 100 U/ml penicillin/streptomycin, 2 mM glutamine. All media and supplements were from Sigma-Aldrich. Cultures were routinely tested for Mycoplasma contamination. Treatments (Olaparib and BRCA2-Rad51 disruptors) were administered in culture medium supplemented with 0.6% DMSO. The same amount of DMSO was added to the control, untreated cultures.
Cell viability was assessed by CellTiter Glo, Luminescent Cell Viability Assay. Briefly, BxPC-3 cells (1×10^4/well) were plated in white 96-well plates with clear bottom and treated for 72 h with olaparib (10 μM) or with the BRCA2-Rad51 disruptors, given alone or in combination. After treatments, the plate was allowed to equilibrate at room temperature for 30 min and the CellTiter-Glo reactive was directly added to each well. The plate was kept on a shaker for 2 min to induce cell lysis and its luminescence was measured by using a Fluoroskan Ascent FL reader (Labsystems) using manufacturer's instructions.

SMILES	EC50
COc1ccc(C2CC(c3c(-c4ccccc4)c4cc(Cl)ccc4[nH]c3=O)=NN2C(=O)CCC(=O)O)cc1F (centres unmarked) [d.18, 4-[5-(6-chloro-2-oxo-4-phenyl-1H-quinolin-3-yl)-3-(3-fluoro-4-methoxy-phenyl)-3,4-dihydropyrazol-2-yl]-4-oxo-butanoic acid]	73 µM
CC(=O)N1N=C(c2c(Cc3ccccc3)c3cc(Cl)ccc3[nH]c2=O)CC1c1ccc(F)cc1 (centres unmarked) [d.51, 3-[2-acetyl-3-(4-fluorophenyl)-3,4-dihydropyrazol-5-yl]-4-benzyl-6-chloro-1H-quinolin-2-one]	15.2 µM
CCn1ncc2cc(C3CC(c4c(-c5ccccc5)c5cc(Cl)ccc5[nH]c4=O)=NN3C(C)=O)ccc21 (centres unmarked) [d.32, 3-[2-acetyl-3-(1-ethylindazol-5-yl)-3,4-dihydropyrazol-5-yl]-6-chloro-4-phenyl-1H-quinolin-2-one]	27 µM
O=C(O)CCC(=O)N1N=C(c2c(-c3ccccc3)c3cc(Cl)ccc3[nH]c2=O)CC1c1ccc(-c2ccc(Br)cc2)cc1 (centres unmarked) [d.39, 4-[3-[4-(4-bromophenyl)phenyl]-5-(6-chloro-2-oxo-4-phenyl-1H-quinolin-3-yl)-3,4-dihydropyrazol-2-yl]-4-oxo-butanoic acid]	43 µM
Cn1ncc2cc(C3CC(c4c(Cc5ccccc5)c5cc(Cl)ccc5[nH]c4=O)=NN3C(=O)CCC(=O)O)ccc21 (centres unmarked) [d.73, 4-[5-(4-benzyl-6-chloro-2-oxo-1H-quinolin-3-yl)-3-(1-methylindazol-5-yl)-3,4-dihydropyrazol-2-yl]-4-oxo-butanoic acid]	81.8 µM
CC(=O)N1N=C(c2c(-c3ccccc3)c3cc(Cl)ccc3[nH]c2=O)CC1c1ccc(C)cc1 (centres unmarked) [d.49, 3-[2-acetyl-3-(p-tolyl)-3,4-dihydropyrazol-5-yl]-6-chloro-4-phenyl-1H-quinolin-2-one]	15.2 µM
CC(=O)N1N=C(c2c(-c3ccccc3)c3cc(Cl)ccc3[nH]c2=O)CC1c1ccc(F)cc1 (centres unmarked) [d.2, 3-[2-acetyl-3-(4-fluorophenyl)-3,4-dihydropyrazol-5-yl]-6-chloro-4-phenyl-1H-quinolin-2-one]	37 µM
O=C(O)CCC(=O)N1N=C(c2c(Cc3ccccc3)c3cc(Cl)ccc3[nH]c2=O)CC1c1ccc(F)cc1 (centres unmarked) [d.50, 4-[5-(4-benzyl-6-chloro-2-oxo-1H-quinolin-3-yl)-3-(4-fluorophenyl)-3,4-dihydropyrazol-2-yl]-4-oxo-butanoic acid]	15.2 µM
O=C(O)CCC(=O)N1N=C(c2c(-c3ccccc3)c3cc(Cl)ccc3[nH]c2=O)CC1c1ccc(Cl)cc1 (centres unmarked) [d.5, 4-[5-(6-chloro-2-oxo-4-phenyl-1H-quinolin-3-yl)-3-(4-chlorophenyl)-3,4-dihydropyrazol-2-yl]-4-oxo-butanoic acid]	> 50 µM
CC(=O)N1N=C(c2c(-c3ccccc3)c3cc(Cl)ccc3[nH]c2=O)CC1c1ccc(Cl)cc1 (centres unmarked) [d.6, 3-[2-acetyl-3-(4-chlorophenyl)-3,4-dihydropyrazol-5-yl]-6-chloro-4-phenyl-1H-quinolin-2-one]	20 µM
CCC(=O)N1N=C(c2c(-c3ccccc3)c3cc(Cl)ccc3[nH]c2=O)CC1c1ccc(Cl)cc1 (centres unmarked) [d.7, 6-chloro-3-[3-(4-chlorophenyl)-2-propanoyl-3,4-dihydropyrazol-5-yl]-4-phenyl-1H-quinolin-2-one]	20 µM
O=C(O)CCC(=O)N1N=C(c2c(Cc3ccccc3)c3cc(Cl)ccc3[nH]c2=O)CC1c1ccc(Br)cc1 (centres unmarked) [d.58, 4-[5-(4-benzyl-6-chloro-2-oxo-1H-quinolin-3-yl)-3-(4-bromophenyl)-3,4-dihydropyrazol-2-yl]-4-oxo-butanoic acid]	23.6 µM
COc1ccc(C2CC(c3c(Cc4ccccc4)c4cc(Cl)ccc4[nH]c3=O)=NN2C(C)=O)cc1 (centres unmarked) [d.52, 3-[2-acetyl-3-(4-methoxyphenyl)-3,4-dihydropyrazol-5-yl]-4-benzyl-6-chloro-1H-quinolin-2-one]	13.7 µM
COc1ccc(-c2ccc(C3CC(c4c(-c5ccccc5)c5cc(Cl)ccc5[nH]c4=O)=NN3C(=O)CCC(=O)O)cc2)cc1 (centres unmarked) [d.41, 4-[5-(6-chloro-2-oxo-4-phenyl-1H-quinolin-3-yl)-3-[4-(4-methoxyphenyl)phenyl]-3,4-dihydropyrazol-2-yl]-4-oxo-butanoic acid]	40.6 µM
COc1ccc(C2CC(c3c(CCc4ccccc4)c4cc(Cl)ccc4[nH]c3=O)=NN2C(=O)CCC(=O)O)cc1 (centres unmarked) [d.105, 4-[5-[6-chloro-2-oxo-4-(2-phenylethyl)-1H-quinolin-3-yl]-3-(4-methoxyphenyl)-3,4-dihydropyrazol-2-yl]-4-oxo-butanoic acid]	29.6 µM
